From patent US20130039956A1, “USE OF NITROCARBOXYLIC ACIDS FOR THE TREATMENT, DIAGNOSIS AND PROPHYLAXIS OF AGGRESSIVE HEALING PATTERNS” (priority 2010, published 2013)

Experiments:
[1] = test system: canine cutaneous mastocytoma cells; assay: Toxin response of mast cells (mastoparan, Streptolysin O, UVB); type: cell-based; conditions: preincubation 10 and 100 μmol, compared with native FA
Procedure: In order to determine membrane stabilizing and anticytotoxic properties of nitrated fatty acids, an in vitro model utilizing canine cutaneous mastocytoma cells was chosen. Cells were cultured according to standard procedure. Cytotoxic effects were quantified by measuring not only by Ca^2+ influx, histamine, and TNFα release, but also by using the MTT assay. Cell suspensions were incubated with 0.9% saline, one of the nitrocarboxylic acids as listed in table 1 or the respective native fatty acid as to achieve a final concentration of 10 and 100 μmol which was given to the medium 15 min before toxin application.
Mastoparan suspended in a buffer solution was added to the preincubated mast cell suspensions to achieve a final concentration of 10 or 30 μmol, respectively. Measurements were performed after 1 hour incubation time. […] Preincubation of mast cells with nitrated fatty acids reduced the effects on Ca^2+ influx, histamine release, and apoptosis induction in a dose-dependent manner, with an almost complete absence of apoptosis at a concentration of 100 μmol.
Streptolysin O was given to preincubated suspensions to achieve a final concentration of 500 ng/ml. Measurements were performed after 2 hours. Releases of histamine and TNFα in the suspensions were measured. After saline preincubation, a significant release of histamine and TNFα was observed.
Cell plates were exposed to a single dose (250 mJ/cm2) of UVB using a lamp (Saalmann, Herford, Germany) emitting most of its energy within the UVB range (295 to 315 nm). Tryptase levels in the supernatants were determined after 30 minutes, and concentrations of TNFα after 60 minutes. After preincubation with saline, there was a marked increase of tryptase. Preincubation with native fatty acids led to a dose-dependent reduction of tryptase release, which was significant at the lower irradiation dose but not after exposure to a high irradiation dose. […] For all nitrated fatty acids that were used the results were mostly inside the same range. Relative differences can be represented as follows: […]

[2] = test system: human corneal fibroblasts; assay: Model for fibrosis induction (3D corneal stroma, TGF-β1); type: cell-based; conditions: TGF-β1 over 7 days; compared with native FA; further: key: 0: not superior to native FA (control); +: Superior to native FA; ++: superior to both; +++: outstanding effect
Procedure: Cornea injury may ultimately lead to a scar by way of corneal fibrosis, which is characterized by the presence of myofibroblasts and improper deposition of extracellular matrix components (ECM). An established in vitro model to study the healing response to trauma of corneal stroma was used. The in vitro 3-dimensional (3D) model of a corneal stroma was produced by human corneal fibroblasts stimulated with stable vitamin C which mimics corneal development. TGF-β1 was added to the medium over 7 days. […] There were no morphological changes of the myofibroblasts when treated with nitro fatty acids.

TRPV-1 = target: T1, TRPV-1 (Mus musculus, UniProt Q704Y3); assay: Signal transduction of receptors of the TRP-protein family in retinal slices; type: cell-based, mice; conditions: 10 and 50 μmol, capsaicin 10 μmol or acid pH; compared with native FA; further: key: 0: not superior to native FA (control); +: Superior to native FA; ++: superior to both; +++: outstanding effect
T1 construct: Whole retinas were isolated and cut into 100 μm slices using a tissue slicer; from tissue; host or cells: mouse retinal slices (100 μm)
T1 sequence (Q704Y3 whole entry): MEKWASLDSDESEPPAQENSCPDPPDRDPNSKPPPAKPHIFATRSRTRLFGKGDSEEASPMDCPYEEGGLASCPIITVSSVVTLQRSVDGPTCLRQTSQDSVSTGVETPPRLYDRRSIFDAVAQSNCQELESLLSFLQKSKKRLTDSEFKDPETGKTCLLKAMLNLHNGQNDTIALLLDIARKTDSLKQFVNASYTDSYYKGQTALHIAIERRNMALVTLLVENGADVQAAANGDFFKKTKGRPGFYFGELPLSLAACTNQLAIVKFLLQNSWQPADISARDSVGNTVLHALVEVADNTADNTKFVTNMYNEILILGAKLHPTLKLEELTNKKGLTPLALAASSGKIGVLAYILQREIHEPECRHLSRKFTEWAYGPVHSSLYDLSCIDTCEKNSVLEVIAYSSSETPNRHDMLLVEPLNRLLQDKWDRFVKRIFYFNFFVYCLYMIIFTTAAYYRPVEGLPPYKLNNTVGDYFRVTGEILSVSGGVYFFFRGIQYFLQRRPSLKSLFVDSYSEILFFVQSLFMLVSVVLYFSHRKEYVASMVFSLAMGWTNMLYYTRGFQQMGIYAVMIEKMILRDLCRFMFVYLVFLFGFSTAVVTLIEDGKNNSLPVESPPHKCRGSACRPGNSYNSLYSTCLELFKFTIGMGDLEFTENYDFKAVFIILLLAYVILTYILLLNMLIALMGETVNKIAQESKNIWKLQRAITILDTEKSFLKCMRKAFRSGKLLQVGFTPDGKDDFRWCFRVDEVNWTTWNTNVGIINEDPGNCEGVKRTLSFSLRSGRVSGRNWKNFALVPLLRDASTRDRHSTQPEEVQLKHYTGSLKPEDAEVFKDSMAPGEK
Procedure: In order to determine the effect of nitrated fatty acids on receptor signal transduction, an in vitro model was used. Retinal slices from cadaver mice were prepared as described by Snellman and Nawy (Snellman J. Nawy S (2004). cGMP-dependent kinase regulates response sensitivity of the mouse on bipolar cell. J Neurosci 24:6621-6628). Whole retinas were isolated and cut into 100 μm slices using a tissue slicer and than transferred to the recording chamber. The chamber was continuously perfused with Ames media and oxygenated. Picrotoxin (100 μM), strychnine (10 μM), and TPMPA (50 μM) were added. Each nitro fatty acid was added in two experiments to achieve a final concentration of 10 μmol, and in another two experiments to achieve a final concentration of 50 μmol. In two experiments, the corresponding native fatty acid was added to achieve a final concentration of 10 and 50 μmol, and in two experiments saline solution was added which served as controls. Currents were measured via tissue electrodes and monitored throughout the investigation. After incubating the solution for 2 hours, the TRPV-1 agonist capsaicin was added to achieve a final concentration of 10 μmol. Experiments were performed using either 10 mmol Hepes or 10 mmol Mes adjusting the pH of the solution to 6.4 or 4.4, respectively. Furthermore, experiments were performed without or with preincubation (5 minutes) of the TRPV-1 antagonist capsazepine. The solution temperature was held constant at 35° C.

pericardial strips = assay: Cold induced injury in a whole tissue ex-vivo model (pericardium); type: cell-based, Wistar rats; conditions: 200 μmol, 10 min, two cooling cycles; compared with native FA; further: key: 0: not superior to native FA (control); +: Superior to native FA; ++: superior to both; +++: outstanding effect
Text: To determine whether nitrated fatty acids can be used to preserve cells and tissues from cold or cryoinjury, an in vitro model utilizing murine epicardium was established. The experimental set-up should reduce the possibility of ischemia or reperfusion injury to a minimum, but at the same time allow differentiation of the contribution of ischemia/reperfusion injury-triggered cell death, which is known to occur almost exclusively via apoptosis, whereas cell death induced by cold injury almost exclusively results in necrosis.
The pericardial sac was carefully resected in 24 anesthetized Wistar rats (180-270 g) of either sex. Care was taken to grasp the pericardium with a forceps only at the cutting edges and reduce traumatization of the central portions of the pericardium to a minimum. After resection, the cutting edge and the former apex area of the pericardium were dissected, as to obtain flat tissue strips which were placed immediately in the culture medium (DMEM) containing 10% FCS and antibiotics (penicillin, streptomycin). Tissue samples were cultured in an oxygen atmosphere at 18° C. for 2 days. […] Then the pericardial strips were cut into 4 pieces of equal size. One piece was further cultivated at 37° C. without undergoing the cooling cycles, thus, serving as the control. In each of three investigations, one piece was bathed in a solution (0.9% saline and 1% SDS) containing 200 μmol nitro-fatty acid or contained 200 μmol of the corresponding native fatty acid, for 10 min at a temperature of 18° C. One piece of pericardium was bathed in a solution without fatty acids under otherwise identical conditions. All samples were cooled by continuously decreasing from ambient temperature at a rate of 3° C./min to a minimum temperature of […]. After 1 hour, the samples were rewarmed at a rate of 3° C./min by continuously increasing the temperature until a temperature of 18° C., was achieved. Thereafter an identical cooling and rewarming cycle was performed. After the second cooling cycle, the tissue pieces were further cultured in the culture medium for 1 day allowing continuous adaptation to an ambient temperature of 37° C. For analytical preparations the pericardial pieces were out and further processed. A direct TUNEL assay (Roche) was use for quantification of apoptosis, an annexin V/propidium iodide exclusion assay (Roche) was used to quantify the number of necrotic cells, and viability was determined by the WST-8 assay. Furthermore, the LDH release was quantified in the supernatants.
To rule out that cell death has been induced by ischemia or reperfusion (reoxygenation), in one series of experiments, a control sample was incubated with an all-caspase inhibitor (Q-VD-OPH, BioVision, USA) reconstituted in DMSO before the sample was exposed to cold.

Compound | Relative differences: effect on toxin response of mast cells [1] | Relative efficacy in model for fibrosis induction [2] | Relative effect on TRPV-1 signal transduction (current response) (TRPV-1) | Relative effect on cold induced injury (pericardial strips)
5-nitro-eicosatrienoic acid [compound 4] | + | – | – | –
9,10-nitro-cis-oleic acid [compound 10] | +++ | ++ | ++ | +
9,10-nitro-trans-oleic acid [compound 15] | ++ | + | – | –
CCCCCCCC/C=C(/CCCCCCCC(=O)O)[N+](=O)[O-] [compound 1, 9-nitro cis-oleic acid] | +++ | ++ | ++ | ++
CCCCC/C=C\C/C(=C\CCCCCCCC(=O)O)[N+](=O)[O-] [compound 2, 10-nitro-cis-linoleic acid] | ++ | ++ | ++ | ++
CCCCCCCC/C(=C/CCCCCCCC(=O)O)[N+](=O)[O-] [compound 3, 10-nitro-cis-oleic acid] | +++ | + | ++ | +
CCCCC/C=C(/C/C=C\C/C=C\C/C=C\C/C=C\CCC(=O)O)[N+](=O)[O-] [compound 5, 16-nitro-all-cis-4,7,10,13,16-docosapentaenoic acid] | + | – | – | –
CC/C=C\C/C=C\C/C=C(/CCCCCCCC(=O)O)[N+](=O)[O-] [compound 6, 9-nitro-all-cis-9-12,15-octadecatrienoic acid] | ++ | ++ | + | ++
CC/C=C\C/C=C\C/C(=C/C/C=C\C/C=C\CCCCCC(=O)O)[N+](=O)[O-] [compound 7, 14-nitro-all-cis-7,10,13,16,19-docosapentaenoic acid] | ++ | – | – | –
CCCCCCCC/C=C(/CCCCCCCCCCCCCC(=O)O)[N+](=O)[O-] [compound 8, 15-nitro-cis-15-tetracosenoic acid] | + | + | – | –
CCCCCCCC/C=C(\CCCCCCCC(=O)O)[N+](=O)[O-] [compound 9, 9-nitro-trans-oleic acid] | ++ | – | – | –
CCCCC=C(C=CC=CCCCCCCCC(=O)O)[N+](=O)[O-] [compound 11, 13-nitro-octadeca-9,11,13-trienoic acid] | + | + | – | –
CCCCCCCC/C(=C\CCCCCCCC(=O)O)[N+](=O)[O-] [compound 12, 10-nitro-trans-oleic acid] | ++ | – | – | –
CCCCCC=CCC=C(CC=CCC=CCCCC(=O)O)[N+](=O)[O-] [compound 14, 11-nitro-5,8,11,14-eicosatrienoic acid] | – | + | – | –
CCCCCC/C=C(\CCCCCCCC(=O)O)[N+](=O)[O-] [compound 16, 9-nitro-9-trans-hexadecenoic acid] | ++ | – | – | –
CCCCCCCC/C=C(/CCCCCCCCCCCC(=O)O)[N+](=O)[O-] [compound 17, 13-nitro-cis-13-docosenoic acid] | + | – | – | –
CCCCC/C=C(/C/C=C\C/C=C(/C/C=C\CCCC(=O)O)[N+](=O)[O-])[N+](=O)[O-] [compound 18, 8,14-nitro-cis-5,8,11,14-eicosatetraenoic acid] | 0 | – | – | –
CCC=CCC=C(CC=CCC=CCC=CCC=C(CCC(=O)O)[N+](=O)[O-])[N+](=O)[O-] [compound 19, 4,16-nitro-docosahexaenoic acid] | 0 | – | – | –
CCCCCCCCCCC/C=C(/CCCCC(=O)O)[N+](=O)[O-] [compound 21, 6-nitro-cis-6-octadecenoic acid] | – | – | – | +
CCCCCC=CCC=C(CC=CC/C=C\CCCC(=O)O)[N+](=O)[O-] [compound 22, 11-nitro-cis-5,8,11,14-eicosatetraenoic acid] | ++ | ++ | + | ++
